These results are taken from PubChem BioAssay (NCI).

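Interpolation was linear, between the two tested concentrations surrounding the appropriate level; five concentrations were tested over 48 hours in 96-well plates. GI50 is the concentration that inhibits growth by half. At the TGI there is no net growth.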

Some test systems named below: MOLT-4 leukemia; LOX IMVI melanoma; UO-31 renal; HCT-116 colon; HT29 colon; SF-268 CNS; MALME-3M melanoma; CCRF-CEM leukemia; RPMI-8226 leukemia; CAKI-1 renal.
Test in all cases: growth of human tumour cells (NCI), 48 h

As for `C=C1CCC2(C#N)[C@H]3[C@H](CC[C@@H]2C)[C@@H](C)C[C@@H](CC(C)(C)NC(=O)CN2CCC2=O)[C@H]13` (stereo not given in full), the GI50 with MOLT-4 leukemia is 13.8 µM; in the assay with LOX IMVI melanoma, 6.17 µM; in the assay with UO-31 renal, 10.2 µM; in the assay with HCT-116 colon, 3.43 µM; in the assay on HT29 colon, 10.5 µM; in the assay on SF-268 CNS, 14.2 µM. Besides, the GI50 in the assay with MALME-3M melanoma was 8.56 µM; in the assay on CCRF-CEM leukemia, 12.8 µM; with RPMI-8226 leukemia, 2.87 µM; in the assay on CAKI-1 renal, 10.1 µM. Moreover, the TGI in the assay on MOLT-4 leukemia worked out at 70.3 µM; in the assay with LOX IMVI melanoma, 19.7 µM; with UO-31 renal it was 77.1 µM; in the assay with HCT-116 colon, 16.2 µM; in the assay on HT29 colon, 24.8 µM; in the assay on SF-268 CNS it was 42.3 µM. Besides, the TGI in the assay on MALME-3M melanoma is 23.9 µM; with CCRF-CEM leukemia, 80.3 µM; in the assay on RPMI-8226 leukemia, 15.9 µM; in the assay on CAKI-1 renal, 28.8 µM.
As for `Cc1c2c(c(C)c3c4c(oc13)CCCC4)C=NCC2`, the TGI worked out at 45.1 µM in the assay with MOLT-4 leukemia; 38.3 µM in the assay on LOX IMVI melanoma; 25.8 µM in the assay with UO-31 renal; 35.9 µM in the assay with HCT-116 colon; 29 µM in the assay with HT29 colon; 41.2 µM in the assay on SF-268 CNS. The TGI was 32.6 µM in the assay with MALME-3M melanoma, 29.4 µM with CCRF-CEM leukemia, 43 µM in the assay with RPMI-8226 leukemia and 28 µM in the assay with CAKI-1 renal.
